CC50, MIC50 and MIC90 data for 9 molecules are collected here from ChEMBL document CHEMBL1149222, “Synthesis and in vitro antimycobacterial activity of novel 3-(1H-pyrrol-1-yl)-2-oxazolidinone analogues of PNU-100480” (2004).

Assay type in all cases: functional
Test [1] concerns MT4. Nature of the test: Cytotoxicity of compound against mock-infected MT-4 cells was evaluated by MTT assay. Conditions: Homo sapiens.
In test [2] the test system is Mycobacterium. Kind of test: In vitro anti-mycobacterial activity against Mycobacterium avium complex was determined.
Test [3] deals with Mycobacterium. Nature of the test: (§1) In vitro anti-mycobacterial activity against Mycobacterium smegmatis determined by the MTT method.
The test system of test [4] is Mycolicibacterium smegmatis. Described as §1.
The test system of test [5] is Mycobacterium tuberculosis. Nature of the test: In vitro anti-mycobacterial activity against Mycobacterium tuberculosis ATCC 27294 was determined.
Test [6] relates to Mycobacterium tuberculosis. Nature of the test: In vitro anti-mycobacterial activity against Mycobacterium tuberculosis C.I. 1104 was determined.
Test [7] deals with Mycolicibacterium fortuitum. Kind of test: In vitro anti-mycobacterial activity against Mycobacterium fortuitum was determined.
For test [8], the system named is Mycolicibacterium smegmatis. Nature of the test: In vitro anti-mycobacterial activity against Mycobacterium smegmatis was determined.
The subject of test [9] is Mycobacterium tuberculosis. Kind of test: In vitro anti-mycobacterial activity against Mycobacterium tuberculosis ATCC 27294, determined by the MTT method.
Test [10] has as its system Mycobacterium tuberculosis. Nature of the test: In vitro anti-mycobacterial activity against Mycobacterium tuberculosis C.I. 1104, determined by the MTT method.
Test [11] concerns Mycolicibacterium fortuitum. Kind of test: In vitro anti-mycobacterial activity against Mycobacterium fortuitum determined by the MTT method.

Values after ≈ are worked out from the molar mass of the structure shown.

Molecule `CC(=O)NC[C@H]1CN(c2ccn(-c3ccc(N4CCSCC4)c(F)c3)c2)C(=O)O1` returned a CC50 in test [1] of 20 µM. In addition, the MIC50 in test [2] is 4.8 µM (≈ 2.01 µg/mL); in test [5], 9.8 µM (≈ 4.1 µg/mL); in [6], 12.2 µM (≈ 5.11 µg/mL); in test [7] it was more than 100 µM; in [8] it was 34 µM (≈ 14.2 µg/mL). The MIC90 in [3] is 11.8 µM (≈ 4.94 µg/mL); in test [4], more than 100 µM; in [9], 25 µM (≈ 10.5 µg/mL); in [10], 31 µM (≈ 13 µg/mL).

On to `CC(=O)NC[C@H]1CN(c2ccn(-c3cccc(F)c3)c2)C(=O)O1`, for which the CC50 in test [1] is more than 100 µM. Also, the MIC50 is 4.6 µM (≈ 1.46 µg/mL) in test [2]; 12.9 µM (≈ 4.09 µg/mL) in test [5]; 9.4 µM (≈ 2.98 µg/mL) in [6]; more than 100 µM in [7]; 14.5 µM (≈ 4.6 µg/mL) in test [8]. For the same molecule, the MIC90 is 39.8 µM (≈ 12.6 µg/mL) in test [3], 56.3 µM (≈ 17.9 µg/mL) in test [4], 91.4 µM (≈ 29 µg/mL) in test [9] and 76.9 µM (≈ 24.4 µg/mL) in test [10].

`CC(=O)NC[C@H]1CN(c2ccn(-c3ccccc3)c2)C(=O)O1` showed a CC50 in test [1] of more than 100 µM. Also, the MIC50 in [2] is 4 µM (≈ 1.2 µg/mL); in test [5], 19 µM (≈ 5.69 µg/mL); in [6] it was 10.5 µM (≈ 3.14 µg/mL); in [7], more than 100 µM; in test [8], 9.8 µM (≈ 2.93 µg/mL). Besides, the MIC90 in test [3] turned out to be 32.8 µM (≈ 9.82 µg/mL); in test [4], 41.3 µM (≈ 12.4 µg/mL); in test [9], 74 µM (≈ 22.2 µg/mL); in [10] it was 77.8 µM (≈ 23.3 µg/mL).

As to `CC(=O)NC[C@H]1CN(c2ccn(N3CCOCC3)c2)C(=O)O1`, the CC50 in test [1] was more than 100 µM. Moreover, the MIC50 in test [2] is more than 100 µM; in test [5] it was more than 100 µM; in test [6] it was more than 100 µM; in [7], more than 1000 µM; in test [8], more than 100 µM.

In turn, `CC(=O)NC[C@H]1CN(c2ccn(-c3ccccc3F)c2)C(=O)O1` came in with a CC50 in test [1] of 33.3 µM. Also, the MIC50 is 2 µM (≈ 0.635 µg/mL) in test [2], 3.6 µM (≈ 1.14 µg/mL) in [5], 88.6 µM (≈ 28.1 µg/mL) in [7] and 4.2 µM (≈ 1.33 µg/mL) in test [8]. In addition, the MIC90 in test [3] is 8.9 µM (≈ 2.82 µg/mL); in test [4] it was 15.7 µM (≈ 4.98 µg/mL); in test [11], more than 100 µM; in test [9], 24.7 µM (≈ 7.84 µg/mL).

In test [1], `CC(=O)NC[C@H]1CN(c2ccn(-c3ccc(N4CCOCC4)c(F)c3)c2)C(=O)O1` registered a cytotoxic concentration (CC50) of more than 100 µM. Moreover, the MIC50 in test [2] was 16.5 µM (≈ 6.64 µg/mL); in [5] it was 12.9 µM (≈ 5.19 µg/mL); in [6], 49 µM (≈ 19.7 µg/mL); in [7], more than 100 µM; in test [8], 42.6 µM (≈ 17.1 µg/mL). Besides, the MIC90 in test [3] is 100 µM (≈ 40.2 µg/mL); in [4], more than 100 µM; in test [9], 100 µM (≈ 40.2 µg/mL); in test [10], more than 100 µM.

For the molecule `CC(=O)NC[C@H]1CN(c2ccn(-c3ccc(F)cc3)c2)C(=O)O1`, half-maximal cytotoxicity in test [1] (CC50) was put at 100 µM. Moreover, the MIC50 is 1.4 µM (≈ 0.444 µg/mL) in test [2], 1.9 µM (≈ 0.603 µg/mL) in [5], more than 100 µM in test [7] and 10.3 µM (≈ 3.27 µg/mL) in [8]. In addition, the MIC90 worked out at 5.8 µM (≈ 1.84 µg/mL) in test [3], 45.8 µM (≈ 14.5 µg/mL) in test [4] and 19.7 µM (≈ 6.25 µg/mL) in [9].

Consider `NNC(=O)c1ccncc1` [ISONIAZID], for which, in test [1], the CC50 is more than 100 µM. The MIC50 was 1.4 µM (≈ 0.192 µg/mL) in test [2]; 0.09 µM (≈ 0.0123 µg/mL) in [5]; 0.06 µM (≈ 0.00823 µg/mL) in [6]; more than 100 µM in [7]; 1.8 µM (≈ 0.247 µg/mL) in test [8]. Further, the MIC90 in [3] stood at 4.7 µM (≈ 0.645 µg/mL); in test [4], 6.7 µM (≈ 0.919 µg/mL); in test [9] it was 9.8 µM (≈ 1.34 µg/mL); in test [10], 0.2 µM (≈ 0.0274 µg/mL).

Consider `CC(=O)NC[C@H]1CN(c2ccc(N3CCSCC3)c(F)c2)C(=O)O1` [SUTEZOLID], for which the CC50 in test [1] is more than 100 µM. In addition, the MIC50 is 0.7 µM (≈ 0.247 µg/mL) in test [2]; 0.1 µM (≈ 0.0353 µg/mL) in test [5]; 0.5 µM (≈ 0.177 µg/mL) in test [6]; more than 100 µM in [7]; 0.5 µM (≈ 0.177 µg/mL) in [8]. For the same molecule, the MIC90 in [3] came out at 5 µM (≈ 1.77 µg/mL); in [4], 1.6 µM (≈ 0.565 µg/mL); in [9] it was 0.9 µM (≈ 0.318 µg/mL); in [10] it was 2.5 µM (≈ 0.884 µg/mL).
